Measurements from patent US20260069541A1, “COMPOSITIONS AND METHODS FOR THE DELIVERY OF ACTIVE AGENTS INCLUDING NUCLEIC ACIDS” (Ohio State Innovation Foundation, priority 2022, published 2026).

How the values were obtained:
[1] = system: FLuc mRNA expression in HEK293, A549, and KB; assay: In vitro bioluminescent assay, FLuc mRNA delivery (Example 1); assay type: cell-based; conditions: comparison of ionizable lipids (FIG. 1D) and helper lipids (FIG. 1E)
Experimental: In Vitro Bioluminescent Assay. HEK293, A549, and KB were seeded at 3000 cells/well in 96-well plates 24 hours prior to treatments. Cells were treated with 0.1 ug of FLuc mRNA in QTsome Original or QTPlus. Cells were allowed to uptake QTsome Original or QTPlus encapsulating mRNA overnight. The mRNA expression was determined by Bright-Glo™ Luciferase Assay System (Promega, Madison, WI).

[2] = system: MC38 murine colorectal syngeneic model; assay: In vivo antitumor efficacy, MC38 syngeneic model; set-up: species or system C57BL/6 mice; conditions: MC38 syngeneic mice, individually or in combination
Experimental: To evaluate the combination therapy of QTPlus-AM21 and anti-PDL I therapy, MC38 murine colorectal syngeneic model was generated by subcutaneously inoculating C57BL/6 mice (obtained from Charles River Laboratories) with 1×10^6 cells per mouse on the right flack. Treatments were initiated once tumors reached 50-100 mm^3. Mice (n=5) were intraperitoneally treated with saline, 3 mg/kg QTPlus-encapsulating scramble oligonucleotide, 3 mg/kg QTPlus-AM21, 10 mg/kg atezolizumab, and QTPlus-AM21/atezolizumab combination (3 mg/kg QTPlus-AM21 and 10 mg/kg atezolizumab).
All mice were dosed every 3 days for 5 doses. Tumor growth and body weight were monitored, and the tumor volumes were calculated according to the formula: […]
All animal studies were reviewed and approved by The Ohio State University Institutional Laboratory Animal Care and Use Committee (IACUC). All mice were euthanized one day after the last dose to peak the immune activation and protein expression in TME. Terminal Tumor growth inhibition (% TGI) was determined by the formula: […]
Flow Cytometry. […] Stained cells were analyzed using an LSR II flow cytometer in Flow Cytometry Shared Resources (FCSR) at The Ohio State University Comprehensive Cancer Center.

[3] = system: FFLuc mRNA expression; assay: In vivo mRNA expression after IM injection (IVIS bioluminescence); set-up: species or system ICR CD-1 Swiss mice; conditions: 1.5 μg per leg, two rounds combined, helper lipid in QTsome+
Text: ICR CD-1 Swiss mice were purchased from Charles River Laboratory Animals were housed in a temperature-controlled room under a 12 hr light/12 hr dark cycle and fed normal chow diet. All animal studies were reviewed and approved by the Ohio State University Institutional Laboratory Animal Care and Use Committee. Both male and female mice were used for experiments. In vivo mRNA expression was quantified by measuring firefly luciferase bioluminescence. Mice treated with IM injection of FFLuc mRNA lipid QTsome+ nanoparticles at 1.5 μg per leg were injected with luciferin intraperitonially 5 minutes prior to bioluminescence measurements. Bioluminescence images were taken by a in vivo imaging system (IVIS) under optimal exposure settings.

[4] = system: HEK293T cells; assay: Bright-Glo luciferase assay, FFLuc mRNA delivery by QTsome+ (Example 2); assay type: cell-based; conditions: 10,000 HEK293T cells, 100 ng FFLuc mRNA, overnight
Experimental: To examine the delivery efficiency of QTsome+ lipid nanoparticles, FFLuc mRNA was selected as the reporter gene of interest to be encapsulated into different QTsome+ formulations. Bioluminescence intensity was measured by Bright-Glo luciferase kit used as the quantification of expressed firefly luciferase after mRNA transfection. We treated 10,000 HEK293T cells overnight with 100 ng FFLuc mRNA utilizing different formulations with lipofectamine 3000 as the positive control. […] Therefore, the follow-on samples were formulated at room temperature instead of 65° C. or 37° C.

[5] = system: miR-21; assay: In vitro gene regulation, RT-qPCR of miR-21 downstream genes; assay type: cell-based; conditions: KB and A549 cells; free solution, QTsome Original or QTPlus
Experimental: In Vitro Gene Regulation. KB, A549, THP-1, MC38, and RAW264.7 cells were seeded at 3×10^5 cells/well in 6-well plates 24 hours prior to treatments. Cells were treated with scramble oligonucleotide or AM21 in free solution, lipofectamine, QTsome Original, and QTPlus. Total RNA was extracted using TRI reagent (Zymo Research) per manufacturer protocol. cDNA was prepared by high-capacity cDNA reverse transcription kit (Invitrogen, Waltham, MA, USA), and real-time qPCR (RT-qPCR) was done using SsoAdvanced™ Universal SYBR® Green Supermix (Bio-Rad Laboratories, Hercules, CA) on a QuantStudio 7 Flex Real-time PCR System. All the RT-qPCR primers were purchased from Sigma-Aldrich. Beta-actin (Actb) was selected as the housekeeping gene control. The relative amount of RNA level was calculated and compared according to the 2-ΔΔCt method.

[6] = system: A549 cells; assay: Colony formation assay; assay type: cell-based; conditions: up to 1 week
Experimental: Colony Formation Assay. A549 cells were seeded at 100 cells/well in 24-well plates 24 hours prior to treatments. Cells were treated with 16-mer and 20-mer AM21 in free solution and QTPlus at concentrations of 1 uM and 10 uM. Cells were allowed to form colony for up to 1-week followed with fixation by methanol and colony detection by crystal violet.

[7] = TNS fluorescence assay, apparent pKa; assay type: physicochemical; conditions: helper lipid in QTsome+, same % of DOTAP
Experimental: To evaluate the apparent pKa of the lipid QTsome+ nanoparticles including different combinations of lipids, 2-(p-toluidino) naphthalene-6-sulfonic acid (TNS) fluorescence assay was designed. TNS binds to positively charged lipids through electrostatic interactions and emits strong fluorescence upon excitation. A series of universal buffers (a combination of 10 mM NaCitrate, 10 mM NaPhasphate, 10 mM NaBorate, and 150 mM NaCl) with pH ranging from 3 to 12 was prepared. QTsome+ were diluted in these buffers at the final ionizable lipid (including SM-102, A066, DODMA and DOTAP) concentration of 75 μM. TNS was then added to the final concentration at 6.0 μM. pH was measured after thorough mixing of TNS and QTsome+ using a pH meter. TNS Fluorescence was obtained by transferring 200 μL of samples into a black-opaque plate in triplicate, and reading using a SpectraMax M5 plate reader with the excitation (λex) at 325 nm and the emission (Nem) at 435 nm. It was assumed that in the presence of amino lipids, TNS fluorescence reaches a maximum when 100% of the amino lipids are ionized, while TNS has little fluorescence when the amino lipids are in the un-ionized state. […]
Where FL is TNS fluorescence value, pKa is apparent pKa of the amino lipids, b is the measure of the cooperativeness of the protonation process of […].

[8] = system: A549 xenograft mouse model; assay: In vivo antitumor efficacy of QTPlus-AM21 and erlotinib, A549 xenograft; set-up: species or system nude mice; conditions: A549 xenograft mice, individually or in combination
Experimental: Treatments were initiated once tumors reached 50-100 mm^3. […] All mice were dosed every 3 days for 5 doses. Tumor growth and body weight were monitored, and the tumor volumes were calculated according to the formula: All animal studies were reviewed and approved by The Ohio State University Institutional Laboratory Animal Care and Use Committee (IACUC). All mice were euthanized one day after the last dose to peak the immune activation and protein expression in TME.

[9] = system: A549 cells; assay: MTS assay, cell viability and synergy with erlotinib (CompuSyn); assay type: cell-based; conditions: fixed-ratio combination of QTPlus-AM21 and erlotinib
Experimental: MTS Assay. A549 cells were seeded at 3000 cells/well in 96-well plates 25 hours before treatments. […] After 72-hour treatment, cell viability was examined by CellTiter 96® AQueous One Solution (Promega, Madison, WI) per manufacturer protocol.

## CCCCC/C=C\C/C=C\CCCCCCCCOCC(CN1CCCC1)OCCCCCCCC/C=C\C/C=C\CCCCC (centres unmarked) [A-066, 1-(2,3-bis(((9Z,12Z)-octadeca-9,12-dien-1-yl)oxy)propyl)pyrrolidine]
[1]
  mRNA delivery efficiency of QTPlus with different components: the most suitable for mRNA delivery in QTsome platform

## atezolizumab: an anti-PDL1 therapy, monoclonal antibody
[2]
  Body weight: No significant differences in body weight

## CCCCCCCC/C=C\CCCCCCCC(=O)OC[C@H](COP(=O)(O)OCCN)OC(=O)CCCCCCC/C=C\CCCCCCCC [DOPE, 1,2-dioleoyl-sn-glycero-3-phosphoethanolamine]
[3]
  In vivo delivery efficiency (FLuc expression): rather outperformed PC-based helper lipids
[4]
  Bioluminescence intensity (mRNA delivery efficiency): outperformed DOPC and DSPC
[1]
  mRNA delivery efficiency of QTPlus with different components: the most suitable as helper lipids

## 5′-A*+T*+C*A*G*+T*+C*+T*G*A*+T*A*A*G*+C*+T-3′ (ATCAGTCTGATAAGCT; chemistry not given here) [AM21]
[5]
  miR-21 downstream gene regulation: Akt1 downregulation, Ddah1 upregulation, and Pdl1 upregulation
[6]
  Inhibition of colony formation / A549 cell growth: superior in inhibiting A549 cell growth in vitro

## CCCCCCCCCCCCCCCCCC(=O)OC[C@H](COP(=O)([O-])OCC[N+](C)(C)C)OC(=O)CCCCCCCCCCCCCCCCC [DSPC, distearoylphosphatidylcholine]
[7]
  Apparent pKa: lowest pKa among all

## C#Cc1cccc(Nc2ncnc3cc(OCCOC)c(OCCOC)cc23)c1 [erlotinib, Erlotinib]
[8]
  Body weight: No significant differences in body weight
[9]
  Dose reduction index (DRI): 2.26

## CCCCC/C=C\C/C=C\CCCCCCCCC(CCCCCCCC/C=C\C/C=C\CCCCC)OC(=O)CCCN(C)C [MC3, dilinoleylmethyl-4-dimethylaminobutyrate, reference compound]
[4]
  Bioluminescence intensity (mRNA delivery efficiency): slightly increased the delivery efficiency
